Reference: ChEMBL document CHEMBL1201862, “PubChem BioAssay data set” (2004)
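Cultured in 96-well plates, cells were exposed to test compound for 48 hours across five concentrations. At the GI50, growth is halved.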 Active and inactive are the calls of the source. Rule as the data show it: active = GI50 up to about 1.1 µM and inactive = higher.

Tests used:
Assay in all cases: NCI tumour cell line growth inhibition, 48 h
[1] = test system: NCI-H522
[2] = test system: DLD-1
[3] = test system: SNB-19
[4] = test system: NCI-H226
[5] = test system: OVCAR-4
[6] = test system: SF-268
[7] = test system: COLO 205
[8] = test system: HOP-62
[9] = test system: TK-10
[10] = test system: SK-OV-3
[11] = test system: HOP-92
[12] = test system: UO-31
[13] = test system: OVCAR-3
[14] = test system: UACC-62
[15] = test system: MOLT-4
[16] = test system: LOX IMVI
[17] = test system: U-251
[18] = test system: A498
[19] = test system: SK-MEL-2
[20] = test system: MDA-N

Measured: GI50

NC(=S)NNc1c([N+](=O)[O-])cnn(-c2ccccc2)c1=O
inactive: [1] 18.7 µM | [2] 14.4 µM | [3] 19 µM | [4] 19.1 µM | [5] 17.4 µM | [6] 21.1 µM | [7] 13.1 µM | [8] 19.2 µM | [9] 24 µM | [10] 21.6 µM | [11] 19.9 µM | [12] 23.4 µM | [13] 17.6 µM | [14] 12.1 µM | [15] 12.6 µM | [16] 10.3 µM | [17] 16.9 µM

Clc1cc2nc[nH]c2cc1Cl
inactive: [2] > 100 µM | [3] > 100 µM | [4] 36.7 µM | [5] > 100 µM | [6] > 100 µM | [7] > 100 µM | [8] 93.8 µM | [9] > 100 µM | [18] 15.7 µM | [10] > 100 µM | [11] 56 µM | [12] 48.2 µM | [13] > 100 µM | [14] 76 µM | [15] > 100 µM | [16] > 100 µM | [19] > 100 µM | [17] > 100 µM

CCO/S(=N/S(=O)(=O)c1ccccc1)c1ccccc1[N+](=O)[O-] (configuration not stated)
inactive: [1] > 100 µM | [2] > 100 µM | [3] > 100 µM | [4] > 100 µM | [5] 44.1 µM | [6] > 100 µM | [7] > 100 µM | [8] > 100 µM | [10] > 100 µM | [12] > 100 µM | [13] > 100 µM | [14] > 100 µM | [15] > 100 µM | [16] > 100 µM | [19] > 100 µM | [17] > 100 µM

CC1(C)COC(C2(C)C(=O)C=C(c3ccccc3)c3ccccc32)=N1 (configuration not stated)
inactive: [1] 35.5 µM | [2] 66.4 µM | [3] 50.5 µM | [4] 52.1 µM | [5] 34.8 µM | [6] 58.2 µM | [7] 42.6 µM | [8] 64.9 µM | [9] 93.8 µM | [10] 22.4 µM | [11] 21.8 µM | [12] 28.3 µM | [13] 30.4 µM | [14] 54.3 µM | [15] 25.8 µM | [19] 37.3 µM | [17] 59.4 µM

CC1=CP(=O)(c2ccccc2)C=C(C)C1=C(Cl)Cl (configuration not stated)
inactive: [1] 2.6 µM | [2] 8.17 µM | [3] 17.7 µM | [4] 3.19 µM | [5] 12.9 µM | [6] 3.98 µM | [7] 4.45 µM | [8] 3.26 µM | [9] 4.68 µM | [10] 29.4 µM | [13] 16 µM | [14] 6.43 µM | [15] 3.91 µM | [16] 4.05 µM | [17] 6.71 µM

COc1cc(O)c2c(c1)O[C@@H]1OCC[C@H]21
inactive: [2] > 100 µM | [3] > 100 µM | [4] > 100 µM | [5] > 100 µM | [7] > 100 µM | [8] > 100 µM | [9] > 100 µM | [18] > 100 µM | [10] > 100 µM | [11] > 100 µM | [12] > 100 µM | [13] > 100 µM | [14] > 100 µM | [15] > 100 µM | [16] > 100 µM | [19] > 100 µM | [17] > 100 µM

CC(C)(C)C1CCP(=O)(c2ccccc2)CC1 (configuration not stated)
inactive: [1] > 100 µM | [2] > 100 µM | [3] > 100 µM | [4] > 100 µM | [5] > 100 µM | [7] > 100 µM | [8] > 100 µM | [9] > 100 µM | [18] > 100 µM | [10] > 100 µM | [12] > 100 µM | [13] > 100 µM | [14] > 100 µM | [15] > 100 µM | [16] > 100 µM | [19] > 100 µM | [17] > 100 µM

O=C1CCNC/C1=C\c1ccccc1
inactive: [1] 11.3 µM | [2] 18.9 µM | [3] 19.4 µM | [4] 24 µM | [5] 15.9 µM | [6] 19.6 µM | [7] 40.6 µM | [8] 29.1 µM | [9] 26.1 µM | [18] > 100 µM | [10] 55 µM | [12] 17 µM | [13] 22.9 µM | [14] 17.1 µM | [15] 24.7 µM | [16] 16.8 µM | [19] 54 µM | [17] 20.5 µM

CC1NC(C(=O)O)Cc2cc(O)c(O)cc21 (configuration not stated)
inactive: [1] > 100 µM | [3] > 100 µM | [4] > 100 µM | [5] > 100 µM | [6] > 100 µM | [7] > 100 µM | [8] > 100 µM | [9] > 100 µM | [18] > 100 µM | [10] > 100 µM | [11] > 100 µM | [12] > 100 µM | [13] > 100 µM | [20] > 100 µM | [14] > 100 µM | [15] > 100 µM | [16] > 100 µM | [19] > 100 µM | [17] > 100 µM

c1ccc(CCCN2C3CCC2CN(CCOC(c2ccccc2)c2ccccc2)C3)cc1
inactive: [1] 10.9 µM | [3] 14.6 µM | [4] 11.3 µM | [5] 10.2 µM | [6] 14 µM | [7] 1.68 µM | [8] 13.5 µM | [9] 12.5 µM | [18] 10.1 µM | [10] 13.7 µM | [11] 12.5 µM | [12] 12.2 µM | [13] 13.2 µM | [20] 13.2 µM | [14] 12.9 µM | [15] 8.43 µM | [16] 12.1 µM | [19] 10.6 µM | [17] 8.04 µM

CC(C)(C)C1=CC(O)(c2c3ccccc3c(C3(O)C=C(C(C)(C)C)C(=O)C(C(C)(C)C)=C3)c3ccccc23)C=C(C(C)(C)C)C1=O
active: [18] 0.116 µM | [11] < 0.01 µM
inactive: [1] > 100 µM | [3] > 100 µM | [4] > 100 µM | [5] > 100 µM | [6] > 100 µM | [7] > 100 µM | [8] > 100 µM | [9] > 100 µM | [10] > 100 µM | [12] > 100 µM | [13] > 100 µM | [20] > 100 µM | [14] > 100 µM | [15] 48.2 µM | [16] > 100 µM | [19] > 100 µM | [17] > 100 µM

COc1cc2c(cc1OC)-c1c(cc(OC)c(OC)c1OC)C2=O
inactive: [1] 49 µM | [2] > 100 µM | [3] > 100 µM | [4] > 100 µM | [6] > 100 µM | [7] > 100 µM | [8] 25.9 µM | [9] > 100 µM | [10] 93.3 µM | [11] > 100 µM | [12] 83.4 µM | [13] > 100 µM | [14] > 100 µM | [15] > 100 µM | [16] > 100 µM | [17] > 100 µM

CC[N+]1(C)CCC(O)(/C=C/c2ccc(OC)cc2)C(C(=O)/C=C/c2ccc(OC)cc2)C1 (configuration not stated)
inactive: [1] 2.26 µM | [3] 17.3 µM | [4] 28 µM | [5] 24.7 µM | [6] 10.6 µM | [7] 2.58 µM | [8] 19.3 µM | [9] 2.96 µM | [18] 16.7 µM | [10] 19.1 µM | [11] 15.5 µM | [12] 12.6 µM | [13] 19.7 µM | [20] 12.3 µM | [14] 17.8 µM | [15] 1.94 µM | [16] 2.64 µM | [19] 19 µM | [17] 15.6 µM

CC1CCCc2c1c1ccc3c(O)cccc3c1oc2=O (configuration not stated)
inactive: [1] 13.7 µM | [2] > 100 µM | [3] 34.7 µM | [4] > 100 µM | [5] 14.1 µM | [6] 17.3 µM | [7] > 100 µM | [8] 18.7 µM | [9] 28.8 µM | [10] 20.7 µM | [12] > 100 µM | [13] 64.1 µM | [14] 35.1 µM | [15] > 100 µM | [16] 95.5 µM | [19] 28.9 µM | [17] 33.8 µM

CCCCn1c2c(n(CCCC)c1=S)-c1c(n(CCCC)c(=S)n1CCCC)SSSS2
active: [1] 0.0785 µM | [5] 0.367 µM | [7] 0.432 µM | [11] 0.301 µM | [12] 0.881 µM | [13] 0.267 µM | [15] 0.454 µM
inactive: [3] 3.86 µM | [4] 16.6 µM | [6] 3.44 µM | [8] 6.28 µM | [9] 1.22 µM | [18] > 47.2 µM | [10] 46.1 µM | [20] 2.84 µM | [14] 1.47 µM | [16] 2.03 µM | [19] 2.09 µM | [17] 1.99 µM

Oc1cccc2cc(Br)cnc12
inactive: [1] 2.49 µM | [3] > 39.4 µM | [4] 27.5 µM | [5] 2.86 µM | [6] 2.33 µM | [7] 29.2 µM | [8] 16.2 µM | [9] 35.8 µM | [18] 27.5 µM | [10] 41.1 µM | [11] 16 µM | [12] 6.98 µM | [13] 2.67 µM | [20] 21.7 µM | [14] 5.96 µM | [15] 3.29 µM | [16] 4.1 µM | [19] 24.5 µM | [17] 8.32 µM
